How the values were obtained:
Assay in all cases: arrestin2 recruitment BRET assay (V2R-Rluc / arrestin2-YFP)
Type in all cases: cell-based
[1] = system: V2R-S357A mutant (V2Rpp-3 site); settings: HEK293 cells, 37 °C, 10 min, normalized to maximal response of V2R-WT
Protocol: (§1) After 24 h of transfection, the cells were detached and distributed into 96-well plates at a density of ~25,000 cells per well. After another 24 h incubation at 37 °C, the cells were washed twice with Tyrode’s buffer (140 mM NaCl, 2.7 mM KCl, 1 mM CaCl2, 12 mM NaHCO3, 5.6 mM D-glucose, 0.5 mM MgCl2, 0.37 mM NaH2PO4, and 25 mM HEPES, pH = 7.4) and incubated with vehicle or different concentration ligands (Argipressin) at 37 °C for 10 min Luciferase substrate coelenterazine-h was added at a final concentration of 5 μM before light emissions were recorded using a Mithras LB940 microplate reader (Berthold Technologies) equipped with BRET filter sets. The BRET signal was determined by calculating the ratio of the light intensity emitted by YFP (530/20 nm) over the light intensity emitted by Rluc (485/20 nm). Source data are provided in a Source Data file.
(§2) Supplementary Fig. 14. Surface expression and arrestin2 recruitment toward different V2R phosphor- […]
(§3) a-b). Elisa experiments to assay the expression levels of the wild type and indicated mutants of V2R or V2R-Rluc in HEK293 cells. Data from three independent experiments (n=3) are presented as mean ± SD. Statistical differences between WT and mutations were determined by two-sided one-way ANOVA with Tukey test. “ns”: the […]
(§4) c). The vasopressin-induced arrestin2 recruitment to different V2R phospho-deficient mutants were compared with V2R-WT, examined by BRET assay in a concentration dependent manner. n = 3 biologically independent replicates were examined for three independent experiments. Data (means ± SEM) of each mutant were normalized to […]
(§5) maximal response of V2R-WT. d). Statistical analysis of the Emax and pEC50 of vasopressin induced arrestin2 recruitment to V2R WT or V2R […]

[2] = system: V2R-S363A/S364A (V2Rpp-6-7 site); settings: HEK293 cells, 37 °C, 10 min, normalized to maximal response of V2R-WT
Protocol: as §1, §2, §3, §4, §5

V2R-T360A (V2Rpp-4 site) = settings: HEK293 cells, 37 °C, 10 min, normalized to maximal response of V2R-WT
Protocol: as §1, §2, §3, §4, §5

[3] = system: wild-type V2R and V2R mutants; settings: HEK293 cells; different V2R mutants compared with wild-type V2R; 37 °C, 10 min
Protocol: as §1, §2, §3, §4, §5

## vasopressin
[1]
  Emax of arrestin2 recruitment compared to that of wild-type V2R: 60%
[2]
  Emax of arrestin2 recruitment compared to that of wild-type V2R: approximately 30%
V2R-T360A (V2Rpp-4 site)
  Emax of arrestin2 recruitment compared to that of wild-type V2R: approximately 30%
[3]
  EC50 of vasopressin-induced V2R-arrestin2 interaction: similar
